# Reference: patent US20060069132A1, “Azolecarboxamide herbicides” (priority 2004, published 2006)
# Key:
# [1] = system: barnyardgrass; assay: Test B pre-/postemergence herbicide test; assay type: in vivo, Echinochloa crus-galli; settings: for Barnyardgrass plant response rating: postemergence
# Method in brief: (§1)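 Response was scored visually 13 to 15 days after treatment against untreated greenhouse controls, 0 meaning no effect and 100 complete control. Formulations (solvent mixture plus surfactant) went onto soil after planting, onto foliage of 1- to 4-leaf plants, and onto 2-leaf plants in a flooded paddy set including rice and barnyardgrass.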
# [2] = system: Surinam grass; assay: Test B pre-/postemergence herbicide test; assay type: in vivo, Urochloa decumbens; settings: for Surinam Grass plant response rating: postemergence
# Method in brief: (§2)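 Formulation: non-phytotoxic solvent mix with surfactant. Timing: preemergence on seed and postemergence on 2–18 cm plants, applied concurrently. Readout after 13–15 d greenhouse: visual 0–100 control rating against controls.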
# [3] = system: cocklebur; assay: Test B pre-/postemergence herbicide test; assay type: in vivo, Xanthium strumarium; settings: for Cocklebur plant response rating: postemergence
# Method in brief: as §1
# [4] = system: corn; assay: Test B pre-/postemergence herbicide test; assay type: in vivo, Zea mays; settings: for Corn plant response rating: postemergence
# Method in brief: as §2
# [5] = system: large crabgrass; assay: Test B pre-/postemergence herbicide test; assay type: in vivo, Digitaria sanguinalis; settings: for Crabgrass, Large plant response rating: postemergence
# Method in brief: as §2
# [6] = system: giant foxtail; assay: Test B pre-/postemergence herbicide test; assay type: in vivo, Setaria faberi; settings: for Foxtail, Giant plant response rating: postemergence
# Method in brief: as §2
# [7] = system: lambsquarters; assay: Test B pre-/postemergence herbicide test; assay type: in vivo, Chenopodium album; settings: for Lambsquarters plant response rating: postemergence
# Method in brief: as §2
# [8] = system: morningglory; assay: Test B pre-/postemergence herbicide test; assay type: in vivo, Ipomoea coccinea; settings: for Morningglory plant response rating: postemergence
# Method in brief: as §1
# [9] = system: pigweed; assay: Test B pre-/postemergence herbicide test; assay type: in vivo, Amaranthus retroflexus; settings: for Pigweed plant response rating: postemergence
# Method in brief: as §2
# [10] = system: velvetleaf; assay: Test B pre-/postemergence herbicide test; assay type: in vivo, Abutilon theophrasti; settings: for Velvetleaf plant response rating: postemergence
# Method in brief: as §2
# [11] = system: blackgrass; assay: Test B postemergence herbicide test; assay type: in vivo, Alopecurus myosuroides; settings: postemergence
# Method in brief: (§3)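 Visual control ratings, 0–100 versus untreated controls, taken after 13 to 15 days in the greenhouse. Blackgrass received a postemergence spray at the 1- to 4-leaf stage (2–18 cm); ducksalad, umbrella sedge and barnyardgrass were flooded-paddy treated at 2 leaves.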
# [12] = system: wheat; assay: Test B postemergence herbicide test; assay type: in vivo, Triticum aestivum; parameters: key to Wheat plant response rating: 0 = no effect, 100 = complete control; settings: postemergence
# Method in brief: (§4)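 Plants grow to 1- to 4-leaf stage (2–18 cm) for postemergence spraying, or to 2-leaf stage for the paddy test. Formulated compound is applied. Greenhouse holding lasts 13–15 days. Response is scored visually relative to controls, 0 no effect to 100 complete control; a dash means no result.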
# [13] = system: wild oat; assay: Test B postemergence herbicide test; assay type: in vivo, Avena fatua; settings: postemergence
# Method in brief: as §4
# [14] = system: rice; assay: Test B flooded paddy test; assay type: in vivo, Oryza sativa; settings: 1000 g ai/ha, scale 0 to 100 (0 no effect, 100 complete control)
# Method in brief: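 Scale 0–100: zero equals no visible effect, 100 complete control, judged by eye relative to controls. Timing: 13 to 15 days in greenhouse post-treatment. Growth stage at spraying: two leaves (paddy) or one to four leaves, 2–18 cm (postemergence).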
# [15] = system: small flower umbrella sedge; assay: Test B flooded paddy test; assay type: in vivo, Cyperus difformis; settings: 1000 g ai/ha, scale 0 to 100 (0 no effect, 100 complete control)
# Method in brief: as §3
# [16] = system: ducksalad; assay: Test B flooded paddy test; assay type: in vivo, Heteranthera limosa; settings: 1000 g ai/ha, scale 0 to 100 (0 no effect, 100 complete control)
# Method in brief: as §3
# [17] = system: barnyardgrass; assay: Test B flooded paddy test; assay type: in vivo, Echinochloa crus-galli; settings: 1000 g ai/ha, scale 0 to 100 (0 no effect, 100 complete control)
# Method in brief: as §3
# [18] = system: rice; assay: Test C flooded paddy test; assay type: in vivo, Oryza sativa
# Method in brief: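 Injury scored visually against controls on a 0 (no effect) to 100 (complete control) scale, 12 to 14 days after treatment in greenhouse. Flooded paddy plants treated at 2-leaf stage; postemergence plants at 1- to 4-leaf stage, 2 to 18 cm tall.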
# [19] = system: smallflower umbrella sedge; assay: Test C flooded paddy test; assay type: in vivo, Cyperus difformis
# [20] = system: ducksalad; assay: Test C flooded paddy test; assay type: in vivo, Heteranthera limosa
# [21] = system: barnyardgrass; assay: Test C flooded paddy test; assay type: in vivo, Echinochloa crus-galli
# Method in brief: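 Visual rating, 0 (no effect) to 100 (complete control), vs. controls at 12–14 d in greenhouse. Postemergence: 1–4-leaf plants, 2–18 cm. Paddy: flooded, barnyardgrass at 2-leaf stage.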
# [22] = 125 g ai/ha, 0 is no effect, 100 is complete control, preemergence
# [23] = 125 g ai/ha, visual rating, scale 0 (no effect) to 100 (complete control)
# [24] = 500 g ai/ha, visual rating, 0 = no effect, 100 = complete control, preemergence
# [25] = 500 g ai/ha, scale 0 to 100, 0 is no effect, 100 is complete control
# [26] = 125 g ai/ha, scale 0 to 100 (0 no effect, 100 complete control)
# [27] = 250 g ai/ha, scale of 0 to 100, 0 is no effect, 100 is complete control
# [28] = 500 g ai/ha, visual rating after 12 to 14 days, scale 0 to 100 (0 no effect, 100 complete control)
compound,measurement,setting,value
CCOC(=O)c1ccc(F)c(NC(=O)C2CN(C(C)(C)C)N=C2CC)c1 (racemic) [Compound 335],"Plant response rating (0 to 100 scale), Barnyardgrass",[1]; [22],50
same,Barnyardgrass plant response rating,[1]; [23],0
same,"Plant response rating, Barnyardgrass",[1]; [24],60
same,Barnyardgrass plant response rating,[1]; [25],50
same,"Plant response rating (0 to 100 scale), Surinam Grass",[2]; [22],30
same,Surinam Grass plant response rating,[2]; [23],10
same,"Plant response rating, Surinam Grass",[2]; [24],40
same,Surinam Grass plant response rating,[2]; [25],30
same,"Plant response rating (0 to 100 scale), Cocklebur",[3]; [22],0
same,Cocklebur plant response rating,[3]; [23],10
same,"Plant response rating, Cocklebur",[3]; [24],10
same,Cocklebur plant response rating,[3]; [25],70
same,"Plant response rating (0 to 100 scale), Corn",[4]; [22],30
same,Corn plant response rating,[4]; [23],10
same,"Plant response rating, Corn",[4]; [24],50
same,Corn plant response rating,[4]; [25],20
same,"Plant response rating (0 to 100 scale), Crabgrass, Large",[5]; [22],50
same,"Crabgrass, Large plant response rating",[5]; [23],10
same,"Plant response rating, Crabgrass, Large",[5]; [24],100
same,"Crabgrass, Large plant response rating",[5]; [25],40
same,"Plant response rating (0 to 100 scale), Foxtail, Giant",[6]; [22],60
same,"Foxtail, Giant plant response rating",[6]; [23],20
same,"Plant response rating, Foxtail, Giant",[6]; [24],90
same,"Foxtail, Giant plant response rating",[6]; [25],40
same,"Plant response rating (0 to 100 scale), Lambsquarters",[7]; [22],0
same,Lambsquarters plant response rating,[7]; [23],10
same,"Plant response rating, Lambsquarters",[7]; [24],10
same,Lambsquarters plant response rating,[7]; [25],30
same,"Plant response rating (0 to 100 scale), Morningglory",[8]; [22],0
same,Morningglory plant response rating,[8]; [23],10
same,"Plant response rating, Morningglory",[8]; [24],10
same,Morningglory plant response rating,[8]; [25],40
same,"Plant response rating (0 to 100 scale), Pigweed",[9]; [22],0
same,Pigweed plant response rating,[9]; [23],20
same,"Plant response rating, Pigweed",[9]; [24],10
same,Pigweed plant response rating,[9]; [25],70
same,"Plant response rating (0 to 100 scale), Velvetleaf",[10]; [22],40
same,Velvetleaf plant response rating,[10]; [23],30
same,Velvetleaf plant response rating,[10]; [25],60
same,Blackgrass plant response rating,[11]; [23],10
same,Blackgrass plant response rating,[11]; [25],30
same,Wheat plant response rating,[12]; [23],10
same,Wheat plant response rating,[12]; [25],20
same,"Oat, Wild plant response rating",[13]; [23],20
same,"Oat, Wild plant response rating",[13]; [25],40
same,Rice plant response rating,[14],70
same,"Sedge, Umbrella plant response rating",[15],80
same,Ducksalad plant response rating,[16],90
same,Barnyardgrass plant response rating,[17],60
same,Rice plant response rating,"[18]; 62 g ai/ha, scale 0 to 100",25
same,Rice plant response rating,[18]; [26],25
same,Rice plant response rating,[18]; [27],55
same,"Plant response rating, Rice",[18]; [28],55
same,"Sedge, Umbrella plant response rating","[19]; 62 g ai/ha, scale 0 to 100",45
same,"Sedge, Umbrella plant response rating",[19]; [26],85
same,"Sedge, Umbrella plant response rating",[19]; [27],90
same,"Plant response rating, Sedge, Umbrella",[19]; [28],95
same,Ducksalad plant response rating,"[20]; 62 g ai/ha, scale 0 to 100",0
same,Ducksalad plant response rating,[20]; [26],35
same,Ducksalad plant response rating,[20]; [27],50
same,"Plant response rating, Ducksalad",[20]; [28],70
same,Barnyardgrass plant response rating,"[21]; 62 g ai/ha, scale 0 to 100 (0 no effect, 100 complete control)",10
same,Barnyardgrass plant response rating,[21]; [26],25
same,Barnyardgrass plant response rating,[21]; [27],40
same,"Plant response rating, Barnyardgrass",[21]; [28],65
